Columns and labels:
[1] = system: rats; assay: Nociceptive behavior (flinches) induced by intraplantar acetic acid in rats; assay type: in vivo, rat; conditions: capsazepine 100 μM, n = 10
Method: Rats were placed in a 30 × 30 × 30 cm Plexiglas chamber and allowed to habituate for at least 30 min before nociceptive behavior experiments. A blind experiment was carried out. Separate groups of rats were coded and pretreated with 20 μl capsazepine (100 μM) together with vehicle and different dosages of PAR2-AP, FSLLRY-NH2, or APETx2 in the ipsilateral hind paw before injection of acetic acid. […] And nociceptive behavior (that is, number of flinches) was counted over a 5-min period starting immediately after the injection.
We finally ascertain whether PAR2-AP facilitates pain-related behaviors through interacting with ASIC3 in vivo. Acetic acid (0.6%) was injected into the right hind paws of rats and measured the number of flinches that the animals spent licking and/or lifting the injected paw. Intraplantar injection of acetic acid elicits an intense flinch/shaking response which mainly occurred during 0–5 min after injection of acetic acid. […] However, the low dose (1 μg) of PAR2-AP had no effect on the acidosis-induced nocifensive behaviors (Bonferroni’s post hoc test, P > 0.1, n = 10). In addition, the exacerbating effect of 10 μg PAR2-AP on acidosis-induced nocifensive behaviors was blocked by co-administration of 20 μg FSLLRY-NH2, a selective PAR2 antagonist (Bonferroni’s post hoc test, P < 0.01, compared with 10 μg PAR2-AP alone, n = 10; Fig. 6a).

[2] = system: ASIC3-like currents in rat DRG neurons; assay: Voltage clamp of proton-evoked ASIC3-like currents in acutely isolated rat DRG neurons; assay type: cell-based; conditions: 10^−5 M for 1 min; capsazepine 10 μM present; −60 mV; n = 9
Description: The experimental protocol was approved by the animal research ethics committee of Hubei University of Science and Technology (No. 2016–67). All procedures conformed to international guidelines on the ethical use of animals, and every effort was made to minimize the number of animals used and their sufferings. Five- to 6-week-old Sprague–Dawley male rats were anesthetized with 7% chloral hydrate and then decapitated. The DRGs were taken out and transferred immediately into Dulbecco’s modified Eagle’s medium (DMEM, Sigma) at pH 7.4. After the removal of the surrounding connective tissues, the DRGs were minced with fine spring scissors and the ganglion fragments were placed in a flask containing 5 ml of DMEM in which trypsin (type II-S, Sigma) 0.5 mg/ml, collagenase (type I-A, Sigma) 1.0 mg/ml, and DNase (type IV, Sigma) 0.1 mg/ml had been dissolved and incubated at 35 °C in a shaking water bath for 25–30 min. Soybean trypsin inhibitor (type II-S, Sigma) 1.25 mg/ml was then added to stop trypsin digestion. The incubating solution was then replaced by external solution. Dissociated neurons were placed into a 35-mm Petri dish and kept for at least 1 h in normal external solution before the start of electrophysiological experiments. After plating of the DRG neurons, the neurons were used for experiments within 24 h. The neurons selected for electrophysiological experiment were 15–35 μm in diameter.
Whole-cell patch clamp and voltage clamp recordings were carried out at room temperature (22–25 °C) using a MultiClamp-700B amplifier and Digidata-1440A A/D converter (Axon Instruments, CA, USA). Recording pipettes were pulled using a Sutter P-97 puller (Sutter Instruments, CA, USA). The micropipettes were filled with internal solution containing (mM) KCl 140, MgCl2 2.5, HEPES 10, EGTA 11, and ATP 5; its pH was adjusted to 7.2 with KOH, and osmolarity was adjusted to 310 mOsm/L with sucrose. Cells were bathed in an external solution containing (mM) NaCl 150, KCl 5, CaCl2 2.5, MgCl2 2, HEPES 10, D-glucose 10; its osmolarity was adjusted to 330 mOsm/L with sucrose and its pH to 7.4. The resistance of the recording pipette was in the range of 3–6 MΩ. A small patch of membrane underneath the tip of the pipette was aspirated to form a giga seal, and then, a negative pressure was applied to rupture it, thus establishing a whole-cell configuration. The series resistance was compensated for by 70–80%. The adjustment of capacitance compensation was also done before recording the membrane currents. […]
Drugs purchased from Sigma and used in the experiments include hydrochloric acid, 2-furoyl-LIGRLO-NH2 (a PAR2-activating peptide (PAR2-AP)), trypsin, FSLLRY-NH2, APETx2, and capsazepine. […] The application pipette tips were positioned ∼30 μm away from the recorded neurons. […]

2-furoyl-LIGRLO-NH2 [PAR2-AP]
effect on acidosis-induced nocifensive behaviors (number of flinches), low dose ([1]; PAR2-AP 1 μg intraplantar, 5 min before acetic acid 0.6%, 20 μl, flinches over 5 min, P > 0.1): no effect
acetic acid-induced number of flinches vs acetic acid alone, medium dose ([1]; PAR2-AP 3 μg intraplantar, P < 0.05): significantly greater
acetic acid-induced number of flinches vs acetic acid alone, high dose ([1]; PAR2-AP 10 μg intraplantar, P < 0.01): significantly greater
increase of peak amplitude of I pH 6.6 in DRG neurons after agonist pretreatment [2]: 57.1 ± 9.8%

Reference: publication PMC5534107, “Sensitization of ASIC3 by proteinase-activated receptor 2 signaling contributes to acidosis-induced nociception” (Journal of Neuroinflammation, 2017)
